Like-named read-outs stand apart in the source and are kept apart here.
Tests used:
Test in all cases: Kinase panel
Assay type in all cases: biochemical
Syk(h) = target: T1, Syk(h) (Homo sapiens, UniProt P43405)
T1 construct: purchased Millipore KinaseProfiler

CHK2(I157T)(h) = target: T2, CHK2(I157T)(h) (Homo sapiens, UniProt O96017, I157T)
T2 construct: purchased Millipore KinaseProfiler

PKCθ(h) = target: T3, PKCθ(h) (Homo sapiens, UniProt Q04759)
T3 construct: purchased Millipore KinaseProfiler

cKit(h) = target: T4, cKit(h) (Homo sapiens, UniProt P10721)
T4 construct: purchased Millipore KinaseProfiler

IKKβ(h) = target: T5, IKKβ(h) (Homo sapiens, UniProt O14920)
T5 construct: purchased Millipore KinaseProfiler
T5 sequence (O14920 1-756): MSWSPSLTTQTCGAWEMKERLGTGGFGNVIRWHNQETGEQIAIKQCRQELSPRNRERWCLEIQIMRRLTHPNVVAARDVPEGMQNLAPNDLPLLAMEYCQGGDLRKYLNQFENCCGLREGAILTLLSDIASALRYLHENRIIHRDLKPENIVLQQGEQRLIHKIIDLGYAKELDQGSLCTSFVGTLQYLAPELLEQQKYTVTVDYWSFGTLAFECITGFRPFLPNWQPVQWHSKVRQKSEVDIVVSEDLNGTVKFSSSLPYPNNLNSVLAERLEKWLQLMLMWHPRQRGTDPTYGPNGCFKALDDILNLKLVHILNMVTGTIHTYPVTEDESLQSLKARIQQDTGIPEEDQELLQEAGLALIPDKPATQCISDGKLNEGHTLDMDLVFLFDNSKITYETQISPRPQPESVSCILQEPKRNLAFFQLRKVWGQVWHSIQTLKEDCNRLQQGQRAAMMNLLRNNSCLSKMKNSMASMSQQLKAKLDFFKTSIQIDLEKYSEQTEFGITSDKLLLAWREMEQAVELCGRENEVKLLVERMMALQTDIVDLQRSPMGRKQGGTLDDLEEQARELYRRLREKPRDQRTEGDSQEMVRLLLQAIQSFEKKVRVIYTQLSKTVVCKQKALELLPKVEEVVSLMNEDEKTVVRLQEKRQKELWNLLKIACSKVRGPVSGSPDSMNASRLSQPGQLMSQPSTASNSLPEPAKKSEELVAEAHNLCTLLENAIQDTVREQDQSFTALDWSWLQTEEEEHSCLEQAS

T4 sequence (P10721 26-976): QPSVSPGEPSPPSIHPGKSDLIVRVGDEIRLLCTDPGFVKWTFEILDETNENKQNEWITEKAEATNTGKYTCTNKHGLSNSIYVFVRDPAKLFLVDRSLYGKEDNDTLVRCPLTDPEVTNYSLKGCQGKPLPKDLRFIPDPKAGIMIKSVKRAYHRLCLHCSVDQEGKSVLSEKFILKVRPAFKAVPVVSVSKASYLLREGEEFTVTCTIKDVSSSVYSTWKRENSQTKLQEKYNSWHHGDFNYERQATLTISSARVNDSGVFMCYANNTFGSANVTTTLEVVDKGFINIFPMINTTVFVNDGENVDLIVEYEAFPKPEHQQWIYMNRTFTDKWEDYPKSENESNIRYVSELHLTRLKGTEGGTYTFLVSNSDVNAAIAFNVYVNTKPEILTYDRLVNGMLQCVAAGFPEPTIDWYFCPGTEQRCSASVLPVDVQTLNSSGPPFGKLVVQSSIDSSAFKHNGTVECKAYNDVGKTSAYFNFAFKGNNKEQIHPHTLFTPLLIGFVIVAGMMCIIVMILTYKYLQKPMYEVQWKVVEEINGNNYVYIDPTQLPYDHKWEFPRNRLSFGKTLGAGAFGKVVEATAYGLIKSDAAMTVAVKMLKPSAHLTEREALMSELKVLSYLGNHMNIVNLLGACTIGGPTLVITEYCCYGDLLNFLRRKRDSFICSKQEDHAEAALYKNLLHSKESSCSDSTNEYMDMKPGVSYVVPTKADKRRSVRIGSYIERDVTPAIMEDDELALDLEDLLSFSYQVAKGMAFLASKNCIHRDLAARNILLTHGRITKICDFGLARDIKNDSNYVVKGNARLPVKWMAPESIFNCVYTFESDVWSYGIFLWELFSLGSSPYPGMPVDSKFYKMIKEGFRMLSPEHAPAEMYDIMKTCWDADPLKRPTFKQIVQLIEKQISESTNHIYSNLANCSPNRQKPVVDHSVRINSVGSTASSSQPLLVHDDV
T3 sequence (Q04759 whole entry): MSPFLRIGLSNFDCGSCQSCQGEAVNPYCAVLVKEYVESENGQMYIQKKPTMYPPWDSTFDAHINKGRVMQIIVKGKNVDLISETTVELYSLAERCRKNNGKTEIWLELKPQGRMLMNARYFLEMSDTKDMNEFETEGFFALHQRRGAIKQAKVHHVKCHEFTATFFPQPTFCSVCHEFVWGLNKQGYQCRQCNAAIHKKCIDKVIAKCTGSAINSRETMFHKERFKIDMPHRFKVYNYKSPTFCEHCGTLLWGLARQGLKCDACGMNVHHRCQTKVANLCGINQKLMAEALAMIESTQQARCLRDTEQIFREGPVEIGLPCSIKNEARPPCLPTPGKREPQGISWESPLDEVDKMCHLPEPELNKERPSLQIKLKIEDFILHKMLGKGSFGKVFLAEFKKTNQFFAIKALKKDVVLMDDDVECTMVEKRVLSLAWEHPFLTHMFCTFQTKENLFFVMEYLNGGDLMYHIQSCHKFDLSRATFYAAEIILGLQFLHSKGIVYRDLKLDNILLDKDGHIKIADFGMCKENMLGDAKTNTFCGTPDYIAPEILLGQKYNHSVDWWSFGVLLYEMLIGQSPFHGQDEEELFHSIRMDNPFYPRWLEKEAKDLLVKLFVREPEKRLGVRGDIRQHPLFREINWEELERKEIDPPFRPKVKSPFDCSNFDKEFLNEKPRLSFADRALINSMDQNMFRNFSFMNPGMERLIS
T2 sequence (O96017 whole entry I157T): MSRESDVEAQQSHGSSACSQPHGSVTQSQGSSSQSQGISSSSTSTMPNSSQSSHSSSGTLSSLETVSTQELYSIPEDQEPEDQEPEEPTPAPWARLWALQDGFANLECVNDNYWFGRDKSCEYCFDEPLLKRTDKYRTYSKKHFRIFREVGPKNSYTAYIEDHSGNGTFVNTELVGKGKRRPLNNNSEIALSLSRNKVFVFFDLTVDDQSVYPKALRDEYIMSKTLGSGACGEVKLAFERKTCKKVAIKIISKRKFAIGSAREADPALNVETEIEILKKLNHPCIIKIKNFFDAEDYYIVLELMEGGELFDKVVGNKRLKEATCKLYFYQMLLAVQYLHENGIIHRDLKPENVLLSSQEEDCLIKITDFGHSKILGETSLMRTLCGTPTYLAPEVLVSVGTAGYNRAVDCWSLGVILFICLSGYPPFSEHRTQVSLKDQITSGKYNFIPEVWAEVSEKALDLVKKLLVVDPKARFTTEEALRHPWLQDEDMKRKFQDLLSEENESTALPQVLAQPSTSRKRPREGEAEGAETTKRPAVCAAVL

| SMILES | inhibition at 0.5 µM (Syk(h); 0.5 µM, read-out: % Inhibition) [%] | inhibition at 10 µM (Syk(h); 10 µM, read-out: % Inhibition) [%] | inhibition at 0.5 µM (CHK2(I157T)(h); 0.5 µM, read-out: % Inhibition) [%] | inhibition at 10 µM (CHK2(I157T)(h); 10 µM, read-out: % Inhibition) [%] | inhibition at 0.5 µM (PKCθ(h); 0.5 µM, read-out: % Inhibition) [%] | inhibition at 10 µM (PKCθ(h); 10 µM, read-out: % Inhibition) [%] | inhibition at 0.5 µM (cKit(h); 0.5 µM, read-out: % Inhibition) [%] | inhibition at 10 µM (cKit(h); 10 µM, read-out: % Inhibition) [%] | inhibition at 0.5 µM (IKKβ(h); 0.5 µM, read-out: % Inhibition) [%] | inhibition at 10 µM (IKKβ(h); 10 µM, read-out: % Inhibition) [%] | inhibition at 0.5 µM (Syk(h)) [%] | inhibition at 10 µM (Syk(h)) [%] | inhibition at 0.5 µM (CHK2(I157T)(h)) [%] | inhibition at 10 µM (CHK2(I157T)(h)) [%] | inhibition at 0.5 µM (PKCθ(h)) [%] | inhibition at 10 µM (PKCθ(h)) [%] | inhibition at 0.5 µM (cKit(h)) [%] | inhibition at 10 µM (cKit(h)) [%] | inhibition at 0.5 µM (IKKβ(h)) [%] | inhibition at 10 µM (IKKβ(h)) [%] |
| --- | --- | --- | --- | --- | --- | --- | --- | --- | --- | --- | --- | --- | --- | --- | --- | --- | --- | --- | --- | --- |
| Cn1ncc(Cl)c1-c1cc(C(=O)N[C@H](CN)Cc2ccc(F)c(F)c2)oc1Cl [GSK2141795] | -18 | 35 | 55 | 88 | 82 | 94 | 0 | -1 | -2 | 13 | – | – | – | – | – | – | – | – | – | – |
| Cn1ncc(Cl)c1-c1cc(C(=O)N[C@H](CN)Cc2cccc(F)c2)sc1Cl [GSK2110183] | – | – | – | – | – | – | – | – | – | – | 3 | 39 | -4 | 0 | 62 | 94 | 13 | 8 | 5 | 18 |

From paper PMC4076210, “Discovery of Novel AKT Inhibitors with Enhanced Anti-Tumor Effects in Combination with the MEK Inhibitor” (PLoS ONE, 2014)
